Assay results: patent publication US20260207560A1, “PLURALITY OF GRANULES” (priority 2022, published 2026)
Where “and” joins values, the source holds several entries; their conditions need not be identical. Equal values may be shown once.

Assay: Stability of active ingredient in volatile solvents, 20-28 hours at ambient (UPLC assay and impurities)
Settings: for Assay (as % of nominal): vial replicates
Procedure: Note the incubation for the stability studies were all performed in a similar way: • All were put into 4 mL amber glass vials. • The Initial samples were not analysed as soon as sampled but instead were frozen at −20° C. until the point of analysing the incubated samples (e.g after 28 days at 25, 40 or 50° C.) to avoid degradation of the active ingredient.
Chemical stability was determined by assay (results in Table 8) and quantification of potential active ingredient related substances (shown in
Table 9). […] The objective was to establish whether any active ingredient-related substances might be increasing as a result of the ambient hold.

[1] = 0.1 M HCl, 24 hour, listed as active ingredient
[2] = 0.1 M HCl, Initial, listed as active ingredient
[3] = 5% SLS aq., 24 hour, listed as active ingredient
[4] = 5% SLS aq., Initial, listed as active ingredient
[5] = Ethanol absolute, 24 hour, listed as active ingredient
[6] = Ethanol absolute, Initial, listed as active ingredient
[7] = pH 3 citric acid buffer, 24 hour
[8] = pH 3 citric acid buffer, 24 hour, listed as active ingredient
[9] = pH 3 citric acid buffer, Initial
[10] = pH 3 citric acid buffer, Initial, listed as active ingredient

## CCS(=O)(=O)Nc1ccc2c(c1)nc(C(C)(C)C)n2CC1CCC(F)(F)CC1 [Compound I, N-(2-(tert-butyl)-1-((4,4-difluorocyclohexyl)methyl)-1H-benzimidazol-5-yl)ethanesulfonamide]
0.1 M HCl, 24 hour
  Impurity peak area, RRT 0.38: 0.07 % of Total
  Impurity peak area, RRT 0.61: <0.05 % of Total
  Impurity peak area, RRT 0.83: 0.11 % of Total
  Impurity peak area, RRT 0.85: 0.07 % of Total
  Impurity peak area, RRT 0.92: 0.09 % of Total
[1]
  Impurity peak area, RRT 0.62: <0.05 % of Total and 0.05 % of Total
  Impurity peak area, RRT 0.84*: 0.27 % of Total and 0.34 % of Total
  Impurity peak area, RRT 0.86^$ (PDA spectra unrelated to the active ingredient): <0.05 % of Total and 0.05 % of Total
  Impurity peak area, RRT 0.98* (first row): 0.24 % of Total and 0.22 % of Total
  Impurity peak area, RRT 0.98* (second row): 0.12 % of Total and 0.13 % of Total
  Impurity peak area, RRT 1.04*: 0.05 % of Total and <0.05 % of Total
  Impurity peak area, RRT 1.23*: 0.16 % of Total and 0.15 % of Total
  Impurity peak area, RRT 1.24*: <0.05 % of Total and 0.05 % of Total
  Impurity peak area, RRT 1.35*: 0.07 % of Total and 0.06 % of Total
  Impurity peak area, RRT 1.36*: <0.05 % of Total and 0.05 % of Total
  Impurity peak area, Total: 1.00 % of Total and 1.44 % of Total
  Impurity peak area, Total excluding artifact: 1.00 % of Total and 1.16 % of Total
0.1M HCl, 24 hours ambient
  Assay (as % of nominal), Mean: 106.7 % of nominal
0.1M HCl, 24 hours ambient, listed as active ingredient
  Assay (as % of nominal): 107.7 % of nominal and 105.4 % of nominal
0.1 M HCl, Initial
  Assay (as % of nominal), Mean: 114.4 % of nominal
  Impurity peak area, RRT 0.41: <0.05 % of Total
  Impurity peak area, RRT 0.98* (first row): 0.22 % of Total
  Impurity peak area, RRT 0.98* (second row): 0.12 % of Total
  Impurity peak area, RRT 1.04*: <0.05 % of Total
  Impurity peak area, RRT 1.24*: <0.05 % of Total
[2]
  Impurity peak area, RRT 0.38: 0.10 % of Total and 0.08 % of Total
  Impurity peak area, RRT 0.61: 0.13 % of Total and 0.08 % of Total
  Impurity peak area, RRT 0.62: 0.15 % of Total and 0.09 % of Total
  Impurity peak area, RRT 0.84*: 0.31 % of Total and 0.26 % of Total
  Impurity peak area, RRT 0.85: <0.05 % of Total and 0.08 % of Total
  Impurity peak area, RRT 0.92: 0.18 % of Total and 0.14 % of Total
  Impurity peak area, RRT 1.23*: 0.22 % of Total and 0.23 % of Total
  Impurity peak area, RRT 1.35*: 0.05 % of Total and 0.06 % of Total
  Impurity peak area, RRT 1.36*: 0.05 % of Total and 0.06 % of Total
  Impurity peak area, Total: 2.00 % of Total and 1.47 % of Total
  Impurity peak area, Total excluding artifact: 1.15 % of Total and 1.17 % of Total
0.1M HCl, Initial, listed as active ingredient
  Assay (as % of nominal): 100.6 % of nominal and 127.9 % of nominal
5% SLS aq., 24 hour
  Impurity peak area, RRT 0.41: <0.05 % of Total
  Impurity peak area, RRT 0.62: 0.08 % of Total
  Impurity peak area, RRT 0.85: NBD
  Impurity peak area, RRT 0.92: 0.05 % of Total
  Impurity peak area, RRT 0.98* (first row): 0.24 % of Total
  Impurity peak area, RRT 1.04*: 0.06 % of Total
  Impurity peak area, RRT 1.24*: <0.05 % of Total
  Impurity peak area, RRT 1.36*: <0.05 % of Total
[3]
  Impurity peak area, RRT 0.38: 0.10 % of Total and 0.07 % of Total
  Impurity peak area, RRT 0.61: 0.07 % of Total and 0.06 % of Total
  Impurity peak area, RRT 0.83: 0.30 % of Total and 0.16 % of Total
  Impurity peak area, RRT 0.84*: 0.32 % of Total and 0.30 % of Total
  Impurity peak area, RRT 0.86^$ (PDA spectra unrelated to the active ingredient): 0.05 % of Total and 0.07 % of Total
  Impurity peak area, RRT 0.98* (second row): 0.13 % of Total and 0.12 % of Total
  Impurity peak area, RRT 1.23*: 0.06 % of Total and 0.07 % of Total
  Impurity peak area, RRT 1.35*: 0.07 % of Total and 0.06 % of Total
  Impurity peak area, Total: 1.53 % of Total and 1.34 % of Total
  Impurity peak area, Total excluding artifact: 0.93 % of Total and 0.90 % of Total
5% SLS aq., 24 hours ambient
  Assay (as % of nominal), Mean: 100.8 % of nominal
5% SLS aq., 24 hours ambient, listed as active ingredient
  Assay (as % of nominal): 99.4 % of nominal and 102.3 % of nominal
5% SLS aq., Initial
  Assay (as % of nominal), Mean: 103.3 % of nominal
  Impurity peak area, RRT 0.84*: 0.32 % of Total
  Impurity peak area, RRT 0.86^$ (PDA spectra unrelated to the active ingredient): <0.05 % of Total
  Impurity peak area, RRT 0.98* (first row): 0.24 % of Total
  Impurity peak area, RRT 0.98* (second row): 0.12 % of Total
  Impurity peak area, RRT 1.24*: <0.05 % of Total
  Impurity peak area, RRT 1.36*: 0.05 % of Total
[4]
  Impurity peak area, RRT 0.92: 0.05 % of Total and <0.05 % of Total
  Impurity peak area, RRT 1.04*: 0.05 % of Total and <0.05 % of Total
  Impurity peak area, RRT 1.23*: 0.06 % of Total and 0.07 % of Total
  Impurity peak area, RRT 1.35*: 0.07 % of Total and 0.08 % of Total
  Impurity peak area, Total: 0.96 % of Total and 0.88 % of Total
  Impurity peak area, Total excluding artifact: 0.96 % of Total and 0.88 % of Total
  Assay (as % of nominal): 105.0 % of nominal and 101.7 % of nominal
Ethanol Absolute, 24 hours ambient
  Assay (as % of nominal), Mean: 99.0 % of nominal
Ethanol Absolute, 24 hours ambient, listed as active ingredient
  Assay (as % of nominal): 100.2 % of nominal and 97.7 % of nominal
Ethanol Absolute, Initial
  Assay (as % of nominal): 107.1 % of nominal
Ethanol Absolute, Initial, listed as active ingredient
  Assay (as % of nominal): 90.6 % of nominal
Ethanol absolute, 24 hour
  Impurity peak area, RRT 0.86^$ (PDA spectra unrelated to the active ingredient): <0.05 % of Total
  Impurity peak area, RRT 0.92: <0.05 % of Total
  Impurity peak area, RRT 1.04*: <0.05 % of Total
  Impurity peak area, RRT 1.23*: 0.07 % of Total
  Impurity peak area, RRT 1.24*: <0.05 % of Total
  Impurity peak area, RRT 1.35*: 0.08 % of Total
  Impurity peak area, RRT 1.36*: 0.06 % of Total
[5]
  Impurity peak area, RRT 0.84*: 0.33 % of Total and 0.35 % of Total
  Impurity peak area, RRT 0.98* (first row): 0.22 % of Total and 0.20 % of Total
  Impurity peak area, RRT 0.98* (second row): 0.13 % of Total and 0.14 % of Total
  Impurity peak area, Total: 0.89 % of Total and 0.90 % of Total
  Impurity peak area, Total excluding artifact: 0.89 % of Total and 0.90 % of Total
Ethanol absolute, Initial
  Assay (as % of nominal), Mean: 98.8 % of nominal
  Impurity peak area, RRT 0.38: 0.07 % of Total
  Impurity peak area, RRT 0.61: 0.08 % of Total
  Impurity peak area, RRT 0.62: 0.09 % of Total
  Impurity peak area, RRT 0.83: 0.18 % of Total
  Impurity peak area, RRT 0.92: <0.05 % of Total
  Impurity peak area, RRT 0.98* (second row): 0.12 % of Total
  Impurity peak area, RRT 1.24*: <0.05 % of Total
  Impurity peak area, RRT 1.36*: 0.06 % of Total
[6]
  Impurity peak area, RRT 0.84*: 0.37 % of Total and 0.33 % of Total
  Impurity peak area, RRT 0.98* (first row): 0.20 % of Total and 0.22 % of Total
  Impurity peak area, RRT 1.04*: 0.05 % of Total and <0.05 % of Total
  Impurity peak area, RRT 1.23*: 0.08 % of Total and 0.07 % of Total
  Impurity peak area, RRT 1.35*: 0.08 % of Total and 0.09 % of Total
  Impurity peak area, Total: 0.96 % of Total and 1.47 % of Total
  Impurity peak area, Total excluding artifact: 0.96 % of Total and 0.89 % of Total
Four volatile solvents, 20-28 hour hold at ambient temperature
  Degradation of the active ingredient: no evidence for any active ingredient degradation
Four volatile solvents, initial and 20-28 hour ambient hold
  Total impurities, highest in any case: ≤ 1.17 % of the total peak area
[7]
  Impurity peak area, RRT 0.92: 0.06 % of Total
  Impurity peak area, RRT 1.04*: 0.09 % of Total
  Impurity peak area, RRT 1.23*: 0.10 % of Total
[8]
  Impurity peak area, RRT 0.38: 0.26 % of Total and 0.14 % of Total
  Impurity peak area, RRT 0.61: 0.07 % of Total and 0.10 % of Total
  Impurity peak area, RRT 0.62: 0.07 % of Total and 0.11 % of Total
  Impurity peak area, RRT 0.83: 0.30 % of Total and 0.16 % of Total
  Impurity peak area, RRT 0.84*: 0.30 % of Total and 0.37 % of Total
  Impurity peak area, RRT 0.98* (first row): 0.22 % of Total and 0.21 % of Total
  Impurity peak area, RRT 0.98* (second row): 0.13 % of Total and 0.14 % of Total
  Impurity peak area, RRT 1.24*: <0.05 % of Total and 0.06 % of Total
  Impurity peak area, Total: 1.88 % of Total and 1.82 % of Total
  Impurity peak area, Total excluding artifact: 0.90 % of Total and 1.03 % of Total
pH 3 citric acid buffer, 24 hours ambient
  Assay (as % of nominal), Mean: 95.8 % of nominal
pH 3 citric acid buffer, 24 hours ambient, listed as active ingredient
  Assay (as % of nominal): 109.6 % of nominal and 82.1 % of nominal
[9]
  Assay (as % of nominal), Mean: 109.6 % of nominal
  Impurity peak area, RRT 0.38: 0.27 % of Total
  Impurity peak area, RRT 0.41: 0.26 % of Total
  Impurity peak area, RRT 0.61: 0.05 % of Total
  Impurity peak area, RRT 0.62: 0.06 % of Total
  Impurity peak area, RRT 0.83: 0.21 % of Total
  Impurity peak area, RRT 0.86^$ (PDA spectra unrelated to the active ingredient): <0.05 % of Total
  Impurity peak area, RRT 1.04*: 0.09 % of Total
  Impurity peak area, RRT 1.24*: <0.05 % of Total
[10]
  Impurity peak area, RRT 0.92: 0.10 % of Total and 0.09 % of Total
  Impurity peak area, RRT 0.98* (first row): 0.23 % of Total and 0.21 % of Total
  Impurity peak area, RRT 0.98* (second row): 0.11 % of Total and 0.13 % of Total
  Impurity peak area, RRT 1.23*: 0.16 % of Total and 0.12 % of Total
  Impurity peak area, Total: 1.79 % of Total and 0.97 % of Total
  Impurity peak area, Total excluding artifact: 0.94 % of Total and 0.97 % of Total
  Assay (as % of nominal): 108.8 % of nominal and 110.4 % of nominal
